Measured values taken from ChEMBL document CHEMBL3763124, “N-Benzylbenzamides: A Novel Merged Scaffold for Orally Available Dual Soluble Epoxide Hydrolase/Peroxisome Proliferator-Activated Receptor γ Modulators” (J Med Chem, 2016).
Converted amounts (≈) assume the structure as drawn. The source made the active and inactive calls. The rule behind the calls is not given here.

Legend:
[1] = target: T1, Peroxisome proliferator-activated receptor gamma (Homo sapiens) (UniProt P37231); assay: Transactivation of human PPARgamma expressed in African green monkey COS7 cells at 10 uM incubated overnight by dual-glo luciferase reporter gene assay; type: cell-based; details: COS-7
T1 sequence (whole entry): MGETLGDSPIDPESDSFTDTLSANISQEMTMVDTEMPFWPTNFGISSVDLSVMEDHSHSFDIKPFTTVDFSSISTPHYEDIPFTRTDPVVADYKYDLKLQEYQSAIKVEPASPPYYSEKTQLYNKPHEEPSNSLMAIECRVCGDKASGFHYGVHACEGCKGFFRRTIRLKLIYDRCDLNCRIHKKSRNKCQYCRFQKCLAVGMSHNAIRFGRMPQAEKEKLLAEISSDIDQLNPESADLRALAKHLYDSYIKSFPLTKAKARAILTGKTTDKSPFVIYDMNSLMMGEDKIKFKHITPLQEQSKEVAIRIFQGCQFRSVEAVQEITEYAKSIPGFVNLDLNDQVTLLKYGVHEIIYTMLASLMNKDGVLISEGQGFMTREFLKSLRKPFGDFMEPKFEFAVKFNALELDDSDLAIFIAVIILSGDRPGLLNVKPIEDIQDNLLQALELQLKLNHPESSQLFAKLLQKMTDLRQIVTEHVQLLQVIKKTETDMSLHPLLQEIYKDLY

[2] = target: T2, Peroxisome proliferator-activated receptor delta (Homo sapiens, UniProt Q03181); assay: Transactivation of human PPARdelta expressed in African green monkey COS7 cells incubated overnight by dual-glo luciferase reporter gene assay; type: cell-based; details: cos-7
T2 sequence (Q03181 whole entry): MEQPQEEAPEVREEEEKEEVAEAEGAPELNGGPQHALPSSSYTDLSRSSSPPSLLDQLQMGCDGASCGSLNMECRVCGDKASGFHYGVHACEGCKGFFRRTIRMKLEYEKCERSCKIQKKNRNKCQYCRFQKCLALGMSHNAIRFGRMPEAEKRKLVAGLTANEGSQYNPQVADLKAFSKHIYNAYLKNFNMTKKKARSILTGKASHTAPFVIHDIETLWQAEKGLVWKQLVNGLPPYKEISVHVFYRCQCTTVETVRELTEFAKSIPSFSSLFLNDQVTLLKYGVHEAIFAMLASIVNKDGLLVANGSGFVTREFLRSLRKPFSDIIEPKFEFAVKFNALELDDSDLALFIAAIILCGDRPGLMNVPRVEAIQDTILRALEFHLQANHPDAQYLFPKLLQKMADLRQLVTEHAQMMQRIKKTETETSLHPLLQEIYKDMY

[3] = target: T3, Peroxisome proliferator-activated receptor alpha (Homo sapiens) (UniProt Q07869); assay: Transactivation of human PPARalpha expressed in African green monkey COS7 cells incubated overnight by dual-glo luciferase reporter assay relative to GW7647; type: cell-based; details: COS-7
T3 sequence (whole entry): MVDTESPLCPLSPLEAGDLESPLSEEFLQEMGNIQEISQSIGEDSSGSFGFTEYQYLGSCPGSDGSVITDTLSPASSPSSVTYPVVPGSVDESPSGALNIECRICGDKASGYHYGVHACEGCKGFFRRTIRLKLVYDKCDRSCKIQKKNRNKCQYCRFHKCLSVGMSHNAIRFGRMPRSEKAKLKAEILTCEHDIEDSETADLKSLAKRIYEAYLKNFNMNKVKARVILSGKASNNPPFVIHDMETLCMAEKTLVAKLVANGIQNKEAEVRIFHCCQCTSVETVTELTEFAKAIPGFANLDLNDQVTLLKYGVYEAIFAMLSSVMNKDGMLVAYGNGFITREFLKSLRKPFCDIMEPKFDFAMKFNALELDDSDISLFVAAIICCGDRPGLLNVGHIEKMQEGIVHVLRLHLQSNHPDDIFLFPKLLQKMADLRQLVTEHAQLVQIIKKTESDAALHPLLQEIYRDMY

[4] = target: T4, Peroxisome proliferator-activated receptor delta (Homo sapiens) (UniProt Q03181); assay: Transactivation of human PPARdelta expressed in African green monkey COS7 cells at 10 uM incubated overnight by dual-glo luciferase reporter assay; type: cell-based; details: COS-7
T4 sequence (whole entry): T2 sequence (Q03181 whole entry)

[5] = target: T5, Peroxisome proliferator-activated receptor alpha (Homo sapiens, UniProt Q07869); details: cos-7
T5 sequence (Q07869 whole entry): T3 sequence (whole entry)
Description: (§1) Transactivation of human PPARalpha expressed in African green monkey COS7 cells incubated overnight by dual-glo luciferase reporter gene assay

[6] = target: T6, Bifunctional epoxide hydrolase 2 (Homo sapiens, UniProt P34913); assay: Inhibition of human recombinant sEH using PHOME as substrate preincubated for 30 mins followed by substrate addition measured for 30 mins by fluorescence-based assay
T6 sequence (P34913 whole entry): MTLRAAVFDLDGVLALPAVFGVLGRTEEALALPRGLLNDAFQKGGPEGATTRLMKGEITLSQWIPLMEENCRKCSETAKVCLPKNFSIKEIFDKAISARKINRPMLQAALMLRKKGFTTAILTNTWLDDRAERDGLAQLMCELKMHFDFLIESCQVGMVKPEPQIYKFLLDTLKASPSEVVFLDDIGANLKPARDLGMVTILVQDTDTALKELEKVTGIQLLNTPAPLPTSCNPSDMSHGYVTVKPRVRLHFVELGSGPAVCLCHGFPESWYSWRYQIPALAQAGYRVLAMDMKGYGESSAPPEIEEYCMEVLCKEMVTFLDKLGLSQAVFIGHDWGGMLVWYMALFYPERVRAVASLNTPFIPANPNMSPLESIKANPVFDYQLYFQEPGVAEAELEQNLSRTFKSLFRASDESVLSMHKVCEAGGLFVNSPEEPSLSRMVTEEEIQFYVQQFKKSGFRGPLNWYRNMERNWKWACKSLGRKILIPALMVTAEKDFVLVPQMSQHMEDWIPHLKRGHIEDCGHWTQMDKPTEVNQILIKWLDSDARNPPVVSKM

[7] = target: T5, Peroxisome proliferator-activated receptor alpha
Description: as §1

[8] = Solubility of the compound in water by microplate reader analysis; type: physicochemical
[9] = Apparent oral clearance in RjOrl:Swiss (CD-1) mouse plasma at 30 mg/kg; type: ADME, organism-based
HepG2 = assay: Cytotoxicity against human HepG2 cells assessed as cell viability up to 30 uM after 48 hrs by WST-1 assay; type: cell-based; details: hepg2, 48 h
[10] = target: T7, Peroxisome proliferator-activated receptor gamma (Mus musculus) (UniProt P37238); assay: Transactivation of PPARgamma in mouse 3T3L1 cells assessed as adipocyte differentiation by Oil Red O staining-based assay; type: cell-based; details: 3T3-L1
T7 sequence (whole entry): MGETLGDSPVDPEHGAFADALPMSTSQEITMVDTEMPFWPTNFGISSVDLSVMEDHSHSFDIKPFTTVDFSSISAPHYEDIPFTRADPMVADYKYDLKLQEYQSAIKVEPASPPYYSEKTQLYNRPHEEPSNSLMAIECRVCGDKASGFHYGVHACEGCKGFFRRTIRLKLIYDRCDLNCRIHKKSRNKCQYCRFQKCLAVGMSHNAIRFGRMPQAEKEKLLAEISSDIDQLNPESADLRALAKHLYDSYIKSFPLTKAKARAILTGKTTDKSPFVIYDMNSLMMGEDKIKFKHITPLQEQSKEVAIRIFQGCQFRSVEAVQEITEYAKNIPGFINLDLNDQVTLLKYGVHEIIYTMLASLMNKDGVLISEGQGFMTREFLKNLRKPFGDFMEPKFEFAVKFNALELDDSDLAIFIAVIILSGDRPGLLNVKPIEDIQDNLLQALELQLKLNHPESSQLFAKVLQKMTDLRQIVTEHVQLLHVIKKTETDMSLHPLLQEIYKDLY

[11] = target: T1, Peroxisome proliferator-activated receptor gamma (Homo sapiens); assay: Transactivation of PPARgamma in human primary preadipocytes assessed as adipocyte differentiation by Oil Red O staining-based assay; type: cell-based
[12] = target: T7, Peroxisome proliferator-activated receptor gamma (Mus musculus); assay: Transactivation of PPARgamma in mouse 3T3L1 cells assessed as increase in […] expression by qPCR method; type: cell-based; details: 3T3-L1
[13] = target: T7, Peroxisome proliferator-activated receptor gamma (Mus musculus); assay: Transactivation of PPARgamma in mouse 3T3L1 cells assessed as increase in adiponectin expression by qPCR method; type: cell-based; details: 3T3-L1
[14] = target: T7, Peroxisome proliferator-activated receptor gamma (Mus musculus); assay: Transactivation of PPARgamma in mouse 3T3L1 cells assessed as increase in FABP4 expression by qPCR method; type: cell-based; details: 3T3-L1
[15] = target: T7, Peroxisome proliferator-activated receptor gamma (Mus musculus); assay: Transactivation of PPARgamma in mouse 3T3L1 cells assessed as increase in LPL expression by qPCR method; type: cell-based; details: 3T3-L1
[16] = target: T1, Peroxisome proliferator-activated receptor gamma (Homo sapiens); assay: Transactivation of PPARgamma in human primary preadipocytes assessed as increase in […] expression at 10 uM by qPCR method; type: cell-based
[17] = target: T1, Peroxisome proliferator-activated receptor gamma (Homo sapiens); assay: Transactivation of PPARgamma in human primary preadipocytes assessed as increase in adiponectin expression at 10 uM by qPCR method; type: cell-based
[18] = target: T1, Peroxisome proliferator-activated receptor gamma (Homo sapiens); assay: Transactivation of PPARgamma in human primary preadipocytes assessed as increase in FABP4 expression at 10 uM by qPCR method; type: cell-based
[19] = target: T1, Peroxisome proliferator-activated receptor gamma (Homo sapiens); assay: Transactivation of PPARgamma in human primary preadipocytes assessed as increase in LPL expression at 10 uM by qPCR method; type: cell-based
Mus musculus [20] = assay: Drug level in RjOrl:Swiss (CD-1) mouse plasma treated with Ethyl 2-Ethyl 3-[4-(N-((2-trifluoromethyl)benzyl)benzamide)]propanoate at 30 mg/kg, po administered as single dose; type: ADME, organism-based; details: in vivo
[21] = target: T8, Peroxisome proliferator-activated receptor gamma (Homo sapiens, UniProt P37231); details: cos-7
T8 sequence (P37231 whole entry): T1 sequence (whole entry)
Description: Transactivation of human PPARgamma expressed in African green monkey COS7 cells incubated overnight by dual-glo luciferase reporter gene assay

Mus musculus [22] = assay: Tmax in RjOrl:Swiss (CD-1) mouse plasma assessed as 2-Ethyl-3-[4-(N-((2-trifluoromethyl)benzyl)benzamide)]-propionic Acid at 30 mg/kg, po administered as single dose; type: ADME, organism-based; details: in vivo
Mus musculus [23] = assay: AUC (0 to infinity) in RjOrl:Swiss (CD-1) mouse plasma assessed as 2-Ethyl-3-[4-(N-((2-trifluoromethyl)benzyl)benzamide)]-propionic Acid at 30 mg/kg, po administered as single dose; type: ADME, organism-based; parameters: dose 30 mg/kg, route oral, time infinity; details: in vivo
Mus musculus [24] = assay: Apparent oral clearance in RjOrl:Swiss (CD-1) mouse plasma assessed as 2-Ethyl-3-[4-(N-((2-trifluoromethyl)benzyl)benzamide)]-propionic Acid at 30 mg/kg administered as single dose; type: ADME, organism-based; details: in vivo
Mus musculus [25] = assay: Apparent volume of distribution during terminal phase in RjOrl:Swiss (CD-1) mouse plasma assessed as 2-Ethyl-3-[4-(N-((2-trifluoromethyl)benzyl)benzamide)]-propionic Acid at 30 mg/kg, po administered as single dose; type: ADME, organism-based; details: in vivo
Brain = assay: Drug uptake in RjOrl:Swiss (CD-1) mouse brain assessed as 2-Ethyl-3-[4-(N-((2-trifluoromethyl)benzyl)benzamide)]-propionic Acid at 30 mg/kg, po administered as single dose; type: ADME, organism-based; details: in vivo
Mus musculus [26] = assay: Drug metabolism in RjOrl:Swiss (CD-1) mouse plasma assessed as 2-Ethyl-3-[4-(N-((2-trifluoromethyl)benzyl)benzamide)]-propionic Acid formation at 30 mg/kg, po administered as single dose; type: ADME, organism-based; details: in vivo
Mus musculus [27] = assay: Cmax in RjOrl:Swiss (CD-1) mouse plasma assessed as 2-Ethyl-3-[4-(N-((2-trifluoromethyl)benzyl)benzamide)]-propionic Acid at 30 mg/kg, po administered as single dose; type: ADME, organism-based; parameters: dose 30 mg/kg, route oral; details: in vivo

Structure (SMILES)	EC50 [2]	Emax [3]	Emax [4]	EC50 [5]	solubility [8] [µM]	other results
O=C(O)c1cccc(-c2ccc(C(=O)NCc3ccccc3C(F)(F)F)cc2)c1	Not Active	inactive	inactive	Not Active	–	Activity [1]: 28%
CCC(Cc1ccc(C(=O)NCc2ccc(Oc3ccccc3)cc2)cc1)C(=O)O (configuration not stated)	–	–	20%	–	–	IC50 [6]: 12 µM; EC50 [7]: 0.9 µM
CON(C)C(=O)C1CC1c1ccc(C(=O)NCc2ccccc2C(F)(F)F)cc1 (configuration not stated)	Not Active	inactive	inactive	Not Active	–	Activity [1]: 30%
CCC(Cc1ccc(C(=O)NCc2ccc(C(F)(F)F)cc2)cc1)C(=O)O (configuration not stated)	Not Active	–	–	–	–	IC50 [6]: 7.2 µM; EC50 [7]: 7 µM
O=C(O)c1ccc(-c2ccc(C(=O)NCc3ccccc3C(F)(F)F)cc2)cc1	Not Active	inactive	inactive	Not Active	3.75 (≈ 1.5 µg/mL)	Activity [1]: 30%
CCC(Cc1ccc(C(=O)NCc2ccccc2C(F)(F)F)cc1)C(=O)O (configuration not stated)	Not Active	inactive	inactive	Not Active	75 (≈ 28.5 µg/mL)	CL/F [9]: 31.7 mL/min/kg; Activity (HepG2): Non-toxic; Activity [10]: Dose-dependent effect; Activity [11]: Dose-dependent effect; Activity [12]: Dose-dependent effect; Activity [13]: Dose-dependent effect; Activity [14]: Dose-dependent effect; Activity [15]: Dose-dependent effect; Activity [16]: Active; Activity [17]: Active; Activity [18]: Active; Activity [19]: Active; Drug metabolism (Mus musculus [20]): metabolite_detected
O=C(NCc1ccccc1C(F)(F)F)c1ccc(-c2nnn[nH]2)cc1	Not Active	inactive	inactive	Not Active	375 (≈ 130 µg/mL)	EC50 [21]: Not Active
CCOC(=O)C(CC)Cc1ccc(C(=O)NCc2ccccc2Br)cc1 (configuration not stated)	Not Active	inactive	–	Not Active	20 (≈ 8.37 µg/mL)	IC50 [6]: 4 µM; EC50 [21]: Not Active
CON(C)C(=O)/C=C/c1ccc(C(=O)NCc2ccccc2C(F)(F)F)cc1	Not Active	inactive	inactive	Not Active	–	EC50 [21]: Not Active
CCOC(=O)C(CC)Cc1ccc(C(=O)NCc2ccc(Oc3ccccc3)cc2)cc1 (configuration not stated)	Not Active	110%	–	–	–	EC50 [7]: 4 µM
CCOC(=O)C(CC)Cc1ccc(C(=O)NCc2ccccc2C(F)(F)F)cc1 (configuration not stated)	Not Active	inactive	inactive	Not Active	2.5 (≈ 1.02 µg/mL)	Tmax (Mus musculus [22]): 30 min; AUC (Mus musculus [23]): 4026 ng·h/mL; CL/F (Mus musculus [24]): 125 mL/min/kg; Vz/F (Mus musculus [25]): 54.3 L/kg; Drug uptake (Brain): 30 ng/g; Drug metabolism (Mus musculus [26]): metabolite_detected; Cmax (Mus musculus [27]): 2000 nM
